Columns and labels:
B16.F10 cells = test: CellTiter-Glo Luminescent Cell Viability Assay (cytotoxicity); type: cell-based, mouse; conditions: 24, 48 and 72 hours
Procedure: B16.F10 cells, grown to 85-90% confluency in 150 cm^2 flasks (passage <30), were resuspended in media (MEM-alpha, 10% HI-FBS, 1× antibiotic-antimycotic) and added to 96-well opaque-clear bottom plates at a concentration of 1500 cells/well in 200 μL/well. The cells were incubated at 37° C. with 5% CO2 for 24 hours. The following day, serial dilutions of 2× concentrated particles and 2× concentrated free drug were made in 12-well reservoirs with media to specified concentrations. The media in the plates was replaced with 100 μL of fresh media and 100 μL of the corresponding serially diluted drug. Three sets of plates were prepared with duplicate treatments. Following 24, 48 and 72 hours of incubation at 37° C. with 5% CO2, the media in the plates was replaced with 100 μL of fresh media and 100 μL of CTG solution, and then incubated for 5 minutes on a plate shaker at room temperature set to 450 rpm and allowed to rest for 15 minutes. Viable cells were measured by luminescence using a microtiter plate reader. The data was plotted as % viability vs. concentration and standardized to untreated cells.

B16.F10 tumor = test: In vivo efficacy in B16.F10 mouse model of melanoma (Example 39)
Procedure: The treatments were administered on days 5, 8, and 12 (biweekly×3 injections) post tumor implantation. Health status of the animals was monitored and tumor size was measured three times a week. […] Tumors from each animal were dissected and tumor size was measured. Tumor volume was calculated using the formula: (width×width×length)/2 mm^3.

Compound	Growth inhibition of B16.F10 cells (B16.F10 cells)	also measured
Doxorubicin 5050 PLGA Amide [Example 5]	inhibited the growth of B16.F10 cells in a dose and time dependent manner	
Bis(Docetaxel) Glutamate-5050 PLGA-O-Acetyl [Example 9]	inhibited the growth of B16.F10 cells in a dose and time dependent manner	
Paclitaxel-5050 PLGA-O-Acetyl [Example 7]	inhibited the growth of B16.F10 cells in a dose and time dependent manner	
CC(=O)O[C@H]1C(=O)[C@@]2(C)[C@H]([C@H](OC(=O)c3ccccc3)[C@]3(O)C[C@H](OC(=O)[C@H](O)[C@@H](NC(=O)c4ccccc4)c4ccccc4)C(C)=C1C3(C)C)[C@]1(OC(C)=O)CO[C@@H]1C[C@@H]2O [Free paclitaxel, paclitaxel]		Day-17 TGI (B16.F10 tumor; 6 mg/kg IV days 5, 8, 12): 57%; Day-17 TGI (B16.F10 tumor; 6 mg/kg IV days 5, 8, 12, listed as free paclitaxel): 57%; Day-17 TGI (B16.F10 tumor; 15 mg/kg IV days 5, 8, 12): 83%; Day-17 TGI (B16.F10 tumor; 15 mg/kg IV days 5, 8, 12, listed as free paclitaxel): 83%
Docetaxel-5050 PLGA-O-Acetyl [Example 8]	inhibited the growth of B16.F10 cells in a dose and time dependent manner	
